As a reminder, the IC50 is the midpoint of a concentration-inhibition curve.

Values joined by “and” are separate entries in the source; they are usually repeats but may differ in a detail not shown here. Equal entries are not always repeated. A value given as a limit tells only on which side of the number the result lay.

For one experiment, the target named is T1, PREP (Homo sapiens, UniProt P48147).
T1 construct: purchased Sigma Aldrich, USA
T1 sequence (P48147 1-710): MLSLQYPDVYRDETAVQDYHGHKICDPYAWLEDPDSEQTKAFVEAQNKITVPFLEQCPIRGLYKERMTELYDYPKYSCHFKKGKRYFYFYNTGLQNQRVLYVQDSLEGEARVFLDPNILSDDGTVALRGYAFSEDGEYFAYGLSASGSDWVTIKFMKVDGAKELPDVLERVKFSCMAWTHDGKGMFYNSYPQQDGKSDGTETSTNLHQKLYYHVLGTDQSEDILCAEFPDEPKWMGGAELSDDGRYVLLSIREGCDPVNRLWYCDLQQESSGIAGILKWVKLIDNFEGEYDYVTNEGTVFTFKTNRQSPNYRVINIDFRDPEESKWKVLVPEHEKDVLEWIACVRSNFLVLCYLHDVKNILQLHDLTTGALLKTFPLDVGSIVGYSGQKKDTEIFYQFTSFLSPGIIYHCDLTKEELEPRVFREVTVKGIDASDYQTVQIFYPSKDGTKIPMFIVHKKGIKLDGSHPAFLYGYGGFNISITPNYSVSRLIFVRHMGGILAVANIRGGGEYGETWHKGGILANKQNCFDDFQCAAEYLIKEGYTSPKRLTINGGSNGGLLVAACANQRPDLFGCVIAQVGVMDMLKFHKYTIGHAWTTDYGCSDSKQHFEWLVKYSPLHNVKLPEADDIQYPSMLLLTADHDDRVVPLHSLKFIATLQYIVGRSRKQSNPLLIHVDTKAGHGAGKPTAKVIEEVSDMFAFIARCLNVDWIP
The experiment in a line: PREP biochemical inhibition assay (GP-AMC substrate, IC50). The note with it: for IC50: GP-AMC 2 mM, 10 nM enzyme, 45 min pre-incubation at 30 °C; for PREP activity: individual replicates. Here is the method:
Enzyme activity of DPP4, DPP8, DPP9 (Proteros Biostructures GmbH, Germany) and PREP (Sigma Aldrich, USA) was determined by measuring the initial velocity of AMC release from the fluorogenic substrate GP-AMC (Sigma Aldrich, USA) using a Tecan Spark® 10 M multimode microplate reader (Tecan Group Ltd., Switzerland) in activity buffer (20 mM HEPES/KOH pH 7.3, 110 mM potassium acetate, 2 mM Mg acetate, 0.5 mM EGTA, 0.02% Tween 20, supplemented with 1 mM DTT) and a final volume of 20 μL for maximal 60 min at 30 °C. Prior to activity measurement, 10 nM enzyme was incubated for 45 min at 30 °C and gentle shaking with the inhibitor compounds in concentrations ranging from 0 to 100 μM. The compounds were dissolved in DMSO and diluted in activity buffer (final DMSO concentration: 1%). […]. IC50 values were calculated using Graph-Pad Prism v10.2.3 using the equation: [Inhibitor] vs. response—Variable slope (four parameters). All measurements were performed in triplicates and error bars represent standard errors of the fit.

The target of experiment [1] is T2, HEK293 cell lysates (proteome-wide targets of probe 9) (Homo sapiens, UniProt O00295).
T2 construct: endogenous in cells; host or cells: HEK293 cell lysate
The experiment in a line: Competitive ABPP / direct target identification with alkyne probe 9 in HEK293 cell lysates. The class given is binding, H. sapiens. Conditions: protein TULP2.

The target in experiment [2] is T3, HEK293 cell lysates (proteome-wide targets of probe 9) (Homo sapiens, UniProt P63261).
T3 construct: endogenous in cells; host or cells: HEK293 cell lysate
The experiment is described as above. The class given is binding, H. sapiens. The note with it: protein ACTG1.

Experiment [3] addresses T4, HEK293 cell lysates (proteome-wide targets of probe 9) (Homo sapiens, UniProt P62937).
T4 construct: endogenous in cells; host or cells: HEK293 cell lysate
Described as above. The class given is binding, H. sapiens. The note with it: protein PPIA.

In experiment [4] the target is T5, HEK293 cell lysates (proteome-wide targets of probe 9) (Homo sapiens, UniProt P31948).
T5 construct: endogenous in cells; host or cells: HEK293 cell lysate
Described as above. The class given is binding, H. sapiens. Conditions: protein STIP1.

The target in experiment [5] is T6, HEK293 cell lysates (proteome-wide targets of probe 9) (Homo sapiens, UniProt O43175).
T6 construct: endogenous in cells; host or cells: HEK293 cell lysate
Described as above. The class given is binding, H. sapiens. Conditions: protein PHGDH.

Experiment [6] concerns the target T7, HEK293 cell lysates (proteome-wide targets of probe 9) (Homo sapiens, UniProt Q86TI2).
T7 construct: endogenous in cells; host or cells: HEK293 cell lysate
The description is as above. The note with it: protein DPP9 (Dipeptidyl peptidase 9). The class given is binding, H. sapiens.

The target in experiment [7] is T8, HEK293 cell lysates (proteome-wide targets of probe 9) (Homo sapiens, UniProt P05165).
T8 construct: endogenous in cells; host or cells: HEK293 cell lysate
Described as above. The class given is binding, H. sapiens. The note with it: protein PCCA.

The target in experiment [8] is T9, HEK293 cell lysates (proteome-wide targets of probe 9) (Homo sapiens, UniProt P61247).
T9 construct: endogenous in cells; host or cells: HEK293 cell lysate
The description is as above. The class given is binding, H. sapiens. The note with it: protein RPS3A.

The target in experiment [9] is T10, HEK293 cell lysates (proteome-wide targets of probe 9) (Homo sapiens, UniProt P05387).
T10 construct: endogenous in cells; host or cells: HEK293 cell lysate
The description is as above. The class given is binding, H. sapiens. Conditions: protein RPLP2.

Experiment [10] addresses T11, HEK293 cell lysates (proteome-wide targets of probe 9) (Homo sapiens, UniProt P26641).
T11 construct: endogenous in cells; host or cells: HEK293 cell lysate
The description is as above. The class given is binding, H. sapiens. The note with it: protein EEF1G.

For experiment [11], the target named is T12, HEK293 cell lysates (proteome-wide targets of probe 9) (Homo sapiens, UniProt P04259).
T12 construct: endogenous in cells; host or cells: HEK293 cell lysate
The experiment is described as above. The class given is binding, H. sapiens. Conditions: protein KRT6B.

Experiment [12] has as its target T13, HEK293 cell lysates (proteome-wide targets of probe 9) (Homo sapiens, UniProt P14618).
T13 construct: endogenous in cells; host or cells: HEK293 cell lysate
The experiment is described as above. The class given is binding, H. sapiens. The note with it: protein PKM.

Experiment [13] has as its target T14, HEK293 cell lysates (proteome-wide targets of probe 9) (Homo sapiens, UniProt Q02790).
T14 construct: endogenous in cells; host or cells: HEK293 cell lysate
The experiment is described as above. Conditions: protein FKBP4. The class given is binding, H. sapiens.

Experiment [14] deals with T15, HEK293 cell lysates (proteome-wide targets of probe 9) (Homo sapiens, UniProt Q02878).
T15 construct: endogenous in cells; host or cells: HEK293 cell lysate
The description is as above. The note with it: protein RPL6. The class given is binding, H. sapiens.

T10 sequence (P05387 whole entry): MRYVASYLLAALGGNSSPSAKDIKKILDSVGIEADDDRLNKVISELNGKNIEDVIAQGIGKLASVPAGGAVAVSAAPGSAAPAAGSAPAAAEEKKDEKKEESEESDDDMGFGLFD
T14 sequence (Q02790 whole entry): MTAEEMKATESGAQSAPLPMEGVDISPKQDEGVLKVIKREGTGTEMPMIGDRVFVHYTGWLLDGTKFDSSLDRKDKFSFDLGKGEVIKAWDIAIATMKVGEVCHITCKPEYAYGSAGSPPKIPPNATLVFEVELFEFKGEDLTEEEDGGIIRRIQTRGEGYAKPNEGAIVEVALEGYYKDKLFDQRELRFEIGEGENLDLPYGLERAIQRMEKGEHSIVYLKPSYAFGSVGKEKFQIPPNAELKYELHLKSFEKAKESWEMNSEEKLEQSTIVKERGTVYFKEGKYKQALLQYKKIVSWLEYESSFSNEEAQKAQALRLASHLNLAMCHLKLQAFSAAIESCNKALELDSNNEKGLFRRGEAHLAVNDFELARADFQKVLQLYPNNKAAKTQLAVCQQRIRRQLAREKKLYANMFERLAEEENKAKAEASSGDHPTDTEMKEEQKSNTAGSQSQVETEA
T5 sequence (P31948 whole entry): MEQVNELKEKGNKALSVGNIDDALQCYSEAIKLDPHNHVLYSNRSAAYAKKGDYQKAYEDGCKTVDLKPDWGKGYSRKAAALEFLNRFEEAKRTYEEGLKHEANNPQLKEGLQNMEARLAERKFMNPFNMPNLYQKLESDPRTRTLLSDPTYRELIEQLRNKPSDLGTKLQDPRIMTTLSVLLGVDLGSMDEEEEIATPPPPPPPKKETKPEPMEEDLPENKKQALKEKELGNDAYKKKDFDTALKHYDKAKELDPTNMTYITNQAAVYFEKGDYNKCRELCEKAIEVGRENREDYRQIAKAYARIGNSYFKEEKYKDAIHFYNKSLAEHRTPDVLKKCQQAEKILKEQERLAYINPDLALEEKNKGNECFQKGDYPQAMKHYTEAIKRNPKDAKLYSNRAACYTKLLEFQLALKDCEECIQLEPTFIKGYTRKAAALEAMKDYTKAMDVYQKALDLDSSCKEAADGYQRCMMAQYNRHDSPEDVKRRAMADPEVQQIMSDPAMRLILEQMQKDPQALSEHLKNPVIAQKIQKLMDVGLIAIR
T7 sequence (Q86TI2 whole entry): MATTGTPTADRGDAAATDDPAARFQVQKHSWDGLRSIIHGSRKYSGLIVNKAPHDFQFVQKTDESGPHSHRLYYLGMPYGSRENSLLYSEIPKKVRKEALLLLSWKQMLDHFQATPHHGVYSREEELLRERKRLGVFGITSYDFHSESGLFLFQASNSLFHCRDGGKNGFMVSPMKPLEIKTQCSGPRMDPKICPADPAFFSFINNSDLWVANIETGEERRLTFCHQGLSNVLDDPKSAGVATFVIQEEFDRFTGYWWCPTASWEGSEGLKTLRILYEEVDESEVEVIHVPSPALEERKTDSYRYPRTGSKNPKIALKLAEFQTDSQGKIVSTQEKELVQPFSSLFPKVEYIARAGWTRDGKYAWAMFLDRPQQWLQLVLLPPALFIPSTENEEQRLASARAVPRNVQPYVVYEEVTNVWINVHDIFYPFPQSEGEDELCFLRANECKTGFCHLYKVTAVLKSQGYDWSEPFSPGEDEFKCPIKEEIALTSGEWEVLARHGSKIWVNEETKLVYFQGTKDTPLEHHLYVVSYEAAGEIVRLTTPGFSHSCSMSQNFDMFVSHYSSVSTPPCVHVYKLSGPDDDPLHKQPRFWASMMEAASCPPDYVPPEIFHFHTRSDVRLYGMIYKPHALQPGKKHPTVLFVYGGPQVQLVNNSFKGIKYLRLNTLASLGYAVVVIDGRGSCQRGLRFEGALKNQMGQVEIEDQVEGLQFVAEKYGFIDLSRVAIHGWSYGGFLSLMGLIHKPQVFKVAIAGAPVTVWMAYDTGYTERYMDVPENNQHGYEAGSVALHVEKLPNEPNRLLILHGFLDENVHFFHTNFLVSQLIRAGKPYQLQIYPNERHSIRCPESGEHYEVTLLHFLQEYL
T11 sequence (P26641 whole entry): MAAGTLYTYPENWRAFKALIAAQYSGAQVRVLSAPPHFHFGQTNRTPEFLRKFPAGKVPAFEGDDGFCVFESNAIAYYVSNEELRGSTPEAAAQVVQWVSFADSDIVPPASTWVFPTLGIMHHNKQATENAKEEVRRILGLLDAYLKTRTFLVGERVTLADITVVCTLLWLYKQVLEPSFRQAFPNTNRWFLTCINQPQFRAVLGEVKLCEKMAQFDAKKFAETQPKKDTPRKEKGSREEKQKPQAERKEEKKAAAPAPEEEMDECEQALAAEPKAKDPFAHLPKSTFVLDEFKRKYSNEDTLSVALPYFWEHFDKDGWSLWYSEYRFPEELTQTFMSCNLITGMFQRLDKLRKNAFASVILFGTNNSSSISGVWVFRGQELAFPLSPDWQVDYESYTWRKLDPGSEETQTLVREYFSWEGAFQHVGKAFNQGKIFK
T6 sequence (O43175 whole entry): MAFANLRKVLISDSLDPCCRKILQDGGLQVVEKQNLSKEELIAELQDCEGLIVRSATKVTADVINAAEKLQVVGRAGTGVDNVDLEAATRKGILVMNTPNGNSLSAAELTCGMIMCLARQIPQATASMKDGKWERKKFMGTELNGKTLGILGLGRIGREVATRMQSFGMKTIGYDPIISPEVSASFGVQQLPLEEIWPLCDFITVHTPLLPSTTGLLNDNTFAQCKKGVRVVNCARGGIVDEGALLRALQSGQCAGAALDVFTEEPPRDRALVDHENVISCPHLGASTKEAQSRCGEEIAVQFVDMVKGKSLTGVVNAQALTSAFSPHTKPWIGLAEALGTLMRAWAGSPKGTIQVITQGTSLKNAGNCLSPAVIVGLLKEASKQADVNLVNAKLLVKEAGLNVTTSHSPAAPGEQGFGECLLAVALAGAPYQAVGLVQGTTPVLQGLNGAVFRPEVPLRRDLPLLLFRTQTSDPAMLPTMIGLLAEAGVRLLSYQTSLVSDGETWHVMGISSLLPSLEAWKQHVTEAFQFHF
T13 sequence (P14618 whole entry): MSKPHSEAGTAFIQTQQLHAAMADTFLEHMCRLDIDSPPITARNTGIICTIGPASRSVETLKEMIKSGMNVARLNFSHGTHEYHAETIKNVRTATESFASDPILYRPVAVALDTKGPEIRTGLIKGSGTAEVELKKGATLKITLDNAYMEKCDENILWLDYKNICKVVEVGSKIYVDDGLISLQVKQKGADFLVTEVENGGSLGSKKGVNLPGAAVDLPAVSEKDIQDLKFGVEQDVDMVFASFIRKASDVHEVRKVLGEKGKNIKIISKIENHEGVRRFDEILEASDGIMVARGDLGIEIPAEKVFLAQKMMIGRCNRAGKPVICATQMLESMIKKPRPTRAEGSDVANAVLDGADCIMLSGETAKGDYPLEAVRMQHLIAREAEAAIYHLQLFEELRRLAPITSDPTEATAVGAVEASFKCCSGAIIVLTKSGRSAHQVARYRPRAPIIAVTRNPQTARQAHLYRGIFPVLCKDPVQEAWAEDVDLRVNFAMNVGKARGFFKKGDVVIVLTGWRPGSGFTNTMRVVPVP
T8 sequence (P05165 53-728): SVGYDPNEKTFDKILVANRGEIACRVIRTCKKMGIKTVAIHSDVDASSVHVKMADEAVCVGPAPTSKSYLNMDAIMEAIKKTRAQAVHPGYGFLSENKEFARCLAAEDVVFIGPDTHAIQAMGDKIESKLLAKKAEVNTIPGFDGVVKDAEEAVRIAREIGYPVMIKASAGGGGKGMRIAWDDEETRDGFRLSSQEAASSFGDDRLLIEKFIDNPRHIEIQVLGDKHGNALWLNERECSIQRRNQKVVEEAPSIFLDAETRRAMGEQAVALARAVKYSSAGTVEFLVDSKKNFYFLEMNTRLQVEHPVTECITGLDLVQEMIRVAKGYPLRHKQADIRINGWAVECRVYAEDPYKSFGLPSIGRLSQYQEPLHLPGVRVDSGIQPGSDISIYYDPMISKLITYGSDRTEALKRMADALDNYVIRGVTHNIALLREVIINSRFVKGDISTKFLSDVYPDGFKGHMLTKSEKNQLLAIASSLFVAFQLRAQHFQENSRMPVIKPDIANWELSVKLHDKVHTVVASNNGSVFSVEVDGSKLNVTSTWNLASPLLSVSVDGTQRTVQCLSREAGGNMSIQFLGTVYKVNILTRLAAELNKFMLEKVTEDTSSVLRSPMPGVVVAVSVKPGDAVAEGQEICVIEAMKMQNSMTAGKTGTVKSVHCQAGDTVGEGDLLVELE
T12 sequence (P04259 whole entry): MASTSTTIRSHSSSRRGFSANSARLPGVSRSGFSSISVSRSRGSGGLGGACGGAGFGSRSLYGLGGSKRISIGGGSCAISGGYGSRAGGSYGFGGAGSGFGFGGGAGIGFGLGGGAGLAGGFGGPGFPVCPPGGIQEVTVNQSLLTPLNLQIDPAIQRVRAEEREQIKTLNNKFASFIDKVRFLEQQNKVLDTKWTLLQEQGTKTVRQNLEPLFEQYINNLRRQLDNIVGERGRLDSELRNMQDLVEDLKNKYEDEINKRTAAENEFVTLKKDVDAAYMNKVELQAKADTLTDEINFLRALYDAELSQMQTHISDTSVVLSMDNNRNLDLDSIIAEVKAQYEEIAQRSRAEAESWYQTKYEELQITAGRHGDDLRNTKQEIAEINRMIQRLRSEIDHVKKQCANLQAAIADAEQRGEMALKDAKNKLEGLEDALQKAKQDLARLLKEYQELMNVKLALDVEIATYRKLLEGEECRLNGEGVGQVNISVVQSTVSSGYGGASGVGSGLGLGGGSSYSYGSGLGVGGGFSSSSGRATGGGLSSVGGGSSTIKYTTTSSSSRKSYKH
T4 sequence (P62937 whole entry): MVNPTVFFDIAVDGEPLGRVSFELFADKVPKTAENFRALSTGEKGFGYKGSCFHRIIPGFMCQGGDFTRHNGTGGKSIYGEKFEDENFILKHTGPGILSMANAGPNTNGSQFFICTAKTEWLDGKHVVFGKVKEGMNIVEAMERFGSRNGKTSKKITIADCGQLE

For `C#CCCCP(=O)(OCC)N1CCCC(N)C1=O.O=C(O)C(F)(F)F` (mixture of isomers) [Compound 9], 13.4 µM corresponded to half-maximal inhibition against PREP (IC50). Besides, the PREP activity on PREP (c 1562.5 nM) is 90.6956% and 100.18% and 91.6611%; on PREP (c 3125 nM), 81.4016% and 83.8359% and 86.7341%; on PREP (c 6250 nM) it was 70.1184% and 68.121% and 70.2915%; at PREP (c 25000 nM), 42.6998% and 39.4794% and 39.8185%; at PREP (c 50000 nM) it was 17.1276% and 17.8294% and 21.3954%; at PREP (c 100000 nM), 12.8608% and 13.0915% and 11.6555%. Further, the “Log2-fold change (9/DMSO)” value in experiment [1] is -0.1649; in experiment [2] it was 0.5764; in [3], 1.44; in experiment [4], 1.191; in experiment [5], 0.8847; in [6], 5.502. Moreover, the “Log2-fold change (9/DMSO)” value in experiment [7] was -0.691; in [8] it was 0.9053; in experiment [9], 0.606; in experiment [10], 0.4327; in [11], -0.8544; in experiment [12], -0.3682. Besides, the “Log2-fold change (9/DMSO)” value amounted to 0.6761 in [13] and 0.5143 in experiment [14].
On to `CCCCCc1ccc(SCCP(=O)(OCC)N2CCC[C@H](N)C2=O)cc1.O=C(O)C(F)(F)F` (stereo partly shown) [Compound 16], for which the IC50 on PREP was above 50 µM. The PREP activity was 98.7862% and 85.8025% and 104.946% at PREP (c 1562.5 nM); 105.742% and 108.717% and 107.921% on PREP (c 3125 nM); 96.1256% and 97.1517% and 97.4675% at PREP (c 6250 nM); 92.3447% and 104.519% and 98.6461% at PREP (c 25000 nM); 66.9978% and 69.9305% and 64.8732% on PREP (c 50000 nM); 38.3396% and 47.6921% and 43.692% at PREP (c 100000 nM). For the same compound, the “activity against PREP” value at PREP (within the nanomolar and low micromolar range (< 50 µM)) is reported as “no activity against PREP”. Besides, the “Log2-fold change (16/9)” value in experiment [1] is given as 0.6272; in experiment [2] it was -0.3964; in experiment [3] it was -1.716; in experiment [4] it was -0.3266; in [5], -0.3162; in [6] it was -5.229. For the same compound, the “Log2-fold change (16/9)” value was 0.1044 in [7]; -0.3832 in experiment [8]; -0.0326 in [9]; -0.1709 in experiment [10]; 1.89 in [11]; 0.00104 in [12]. In addition, the “Log2-fold change (16/9)” value in experiment [13] is listed as -0.2833; in [14], 0.35.

For the origin of these results see paper PMC11968843, “Sulphostin-inspired N-phosphonopiperidones as selective covalent DPP8 and DPP9 inhibitors” (Nature Communications, 2025).
